Data reported in patent US20130316985A1, “GPR35 Ligands And Uses Thereof” (CORNING INCORPORATED, priority 2012, published 2013).
Entries after “also recorded” stand apart in the source; their conditions may differ. Read-outs that look alike come from different tables or passages of the source.

How the values were obtained:
GPR35 [1] = molecular target: T1, GPR35 (Homo sapiens, UniProt Q9HC97); assay: DMR agonism assay in native HT-29 cells (Epic optical biosensor); settings: for DMR signal in HT-29 cells (in words): agonism mode
GPR35 [2] = molecular target: T1, GPR35
GPR35 [3] = molecular target: T1, GPR35; assay: Tango β-arrestin translocation gene reporter assay in U2OS-GPR35-bla cells; assay type: cell-based; parameters: TEV protease site (C); Gal4-VP16 transcription factor (C); settings: for β-arrestin translocation (Tango) signal (in words): 2,3-DNP up to 1 mM, 3,4-DNP at 1 mM; for EC50: read-out: Potency EC50, Tango
GPR35 [4] = molecular target: T1, GPR35; settings: U2OS-GPR35-bla
From the text: Tango™ GPR35-bla U2OS cells was used. This cell line stably expresses two fusion proteins: human GPR35 linked to a TEV protease site and a Gal4-VP16 transcription factor, and 13-arrestin/TEV protease fusion protein. The cell line also stably expresses the β-lactamase reporter gene under the control of a UAS response element. The activation of GPR35 by agonists leads to the recruitment of 13-arrestin/TEV protease fusion proteins to the activated GPR35. As a result, the protease cleaves the Gal4-VP16 transcription factor from the receptor, which then translocates to the nucleus and activates the expression of beta-lactamase. […] After overnight culture, the cells were stimulated with ligands for 5 hrs in a humidified 37° C./5% CO2, and then loaded with the cell permeable LiveBLAzer™ FRET B/G substrate. After the two hour incubation the coumarin:fluorescein ratio was measured using Tecan Safire II microplate reader (Männedorf, Switzerland). In the absence of beta-lactamase expression (i.e., no GPR35 activation), cells generate green fluorescence. In the presence of beta-lactamase expression upon receptor activation, the substrate is cleaved and the cells generate blue fluorescence. The coumarin:fluorescein ratio was used as a normalized reporter response.
The U2OS-GPR35-bla cells were pretreated with ML145 for 10 min, followed by stimulation with GPR35 agonists at a fixed concentration (indicated in the legend of FIG. 5). The data represents mean±s.d. from two independent measurements, each in duplicate (n=2).

GPR35 [5] = molecular target: T1, GPR35; remark: listed apart in the source
GPR35 [6] = molecular target: T1, GPR35; assay: cell-based
[7] = HT-29, ML-145 at different doses 10 min before agonist at fixed dose
[8] = maximal DMR response in HT-29 (2,5-DNP: amplitude at 50 min)
[9] = U2OS-GPR35-bla, zaprinast maximal response in same plate = 100%, read-out: efficacy (Tango, normalized to maximal response of zaprinast)
[10] = maximal response normalized to the zaprinast maximal response
[11] = U2OS-GPR35-bla cells, β-arrestin translocation, mean ± s.d.
[12] = maximal response normalized to the zaprinast maximal response, read-out: Efficacy Tango

T1 sequence (Q9HC97 whole entry): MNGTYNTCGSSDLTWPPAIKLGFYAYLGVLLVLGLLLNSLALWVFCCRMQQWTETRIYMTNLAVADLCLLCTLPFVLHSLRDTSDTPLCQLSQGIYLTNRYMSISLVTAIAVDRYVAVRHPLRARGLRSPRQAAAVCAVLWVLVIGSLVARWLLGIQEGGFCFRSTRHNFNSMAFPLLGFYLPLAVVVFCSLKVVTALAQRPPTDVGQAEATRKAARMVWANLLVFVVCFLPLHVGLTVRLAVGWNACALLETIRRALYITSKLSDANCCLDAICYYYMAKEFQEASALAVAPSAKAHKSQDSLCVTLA

## CCCOC(=O)c1cc(O)c(O)c(O)c1 [propyl gallate]
GPR35 [1]
  DMR signal in HT-29 cells (in words): active
GPR35 [2]; [7]
  inhibition of the agonist-induced DMR by ML-145 (in words): can be blocked by ML-145
GPR35 [3]; U2OS-GPR35-bla
  β-arrestin translocation (Tango) signal (in words): trigger Tango signal
GPR35 [4]
  block of the agonist-induced Tango signal by ML-145 (in words): can be blocked by ML-15

## CCCOc1ccccc1-c1nc(=O)c2[nH]nnc2[nH]1 [Zaprinast]
GPR35 [1]; [8]
  Efficacy DMR: 254 ± 14 pm
GPR35 [3]; [9]
  Emax: 100%
GPR35 [3]; [10]
  Efficacy Tango: 100 ± 9 % zaprinast

## Cc1ccc(C(=O)c2cc(O)c(O)c([N+](=O)[O-])c2)cc1 [Tolcapone, 3,4-dihydroxy-4′-methyl-5-nitrobenzophenone]
GPR35 [1]
  DMR signal in HT-29 cells (in words): positive DMR with an early peak followed by a small decay to another elevated plateau
GPR35 [1]; [8]
  Efficacy DMR: 400 ± 33 pm
GPR35 [5]
  EC50: 7.44 µM
GPR35 [2]; [7]
  inhibition of the agonist-induced DMR by ML-145 (in words): partially inhibited
GPR35 [2]; HT-29, ML-145 at different doses 10 min before agonist at fixed dose, listed as tolcapone
  inhibition of the agonist-induced DMR by ML-145 (in words): partial inhibition
GPR35 [3]; [11]
  EC50: 49.2 µM
GPR35 [3]; [9]
  Emax: 25%
GPR35 [3]; [12]
  Emax: 25 ± 2%

## O=C(O)c1cc(/N=N/c2ccc(O)c(C(=O)O)c2)ccc1O [Bi-ASA, (E)-(5,5-diazene-1,2-diyl)bis(2-hydroxybenzoic acid)]
GPR35 [1]
  EC50: 0.00209 µM
GPR35 [3]; U2OS-GPR35-bla
  agonist type compared to zaprinast, based on maximal responses in Tango assays: strong partial agonist
GPR35 [3]; [11]
  EC50: 1.7 µM

## CCN(CC)C(=O)/C(C#N)=C/c1cc(O)c(O)c([N+](=O)[O-])c1 [Entacapone]
GPR35 [3]; [9]
  Emax: 6%
GPR35 [3]; [12]
  Emax: 6 ± 1%

## O=[N+]([O-])c1cc(O)c(O)c([N+](=O)[O-])c1 [3,5-dinitrocatechol]
GPR35 [3]
  EC50: 123 µM

## O=C(O)c1cc(/N=N/c2ccc(S(=O)(=O)Nc3ccccn3)cc2)ccc1O [sulfasalazine]
GPR35 [3]; U2OS-GPR35-bla
  agonist type compared to zaprinast, based on maximal responses in Tango assays: partial agonist
GPR35 [3]; [11]
  EC50: 31.3 µM
GPR35 [6]
  EC50: 2.99 µM

## Nc1ccc(O)c(C(=O)O)c1 [Compound 5-ASA, 5-aminosalicylic acid]
GPR35 [3]; U2OS-GPR35-bla
  agonist type compared to zaprinast, based on maximal responses in Tango assays: weak partial agonist
GPR35 [3]; [11]
  EC50: 545 µM
GPR35 [6]
  EC50: 14.7 µM

## O=C(c1cc(O)c(O)c([N+](=O)[O-])c1)c1ccccc1F [Ro41-0960]
GPR35 [1]; [8]
  Efficacy DMR: 257 ± 16 pm
GPR35 [5]
  EC50: 8.66 µM
GPR35 [2]; [7]
  inhibition of the agonist-induced DMR by ML-145 (in words): partially inhibited
GPR35 [3]; [11]
  EC50: 54.4 µM
GPR35 [3]; U2OS-GPR35-bla, zaprinast maximal response in same plate = 100%
  efficacy (Tango, normalized to maximal response of zaprinast): 13%
GPR35 [3]; [10]
  Efficacy Tango: 13 ± 1 % zaprinast

## Oc1cccc(O)c1O [pyrogallol]
GPR35 [1]
  DMR signal in HT-29 cells (in words): active
GPR35 [2]; [7]
  inhibition of the agonist-induced DMR by ML-145 (in words): can be blocked by ML-145
GPR35 [3]; U2OS-GPR35-bla
  β-arrestin translocation (Tango) signal (in words): trigger Tango signal
GPR35 [4]
  block of the agonist-induced Tango signal by ML-145 (in words): can be blocked by ML-15

## COc1cccc(O)c1O [3-methoxycatechol]
GPR35 [1]
  DMR signal in HT-29 cells (in words): active
GPR35 [2]; [7]
  inhibition of the agonist-induced DMR by ML-145 (in words): can be blocked by ML-145
GPR35 [3]; U2OS-GPR35-bla
  β-arrestin translocation (Tango) signal (in words): trigger Tango signal
GPR35 [4]
  block of the agonist-induced Tango signal by ML-145 (in words): can be blocked by ML-15

## O=C(O)c1cc(/N=N/c2ccc(O)c(C(=O)O)c2)ccc1O (single isomer, unassigned) [olsalazine]
GPR35 [1]
  EC50: 0.0218 µM
GPR35 [3]; [11]
  EC50: 1.26 µM
GPR35 [3]; U2OS-GPR35-bla, listed as olasalazine
  agonist type compared to zaprinast, based on maximal responses in Tango assays: full agonists

## O=C(O)CCNC(=O)c1ccc(/N=N/c2ccc(O)c(C(=O)O)c2)cc1 [balsalazide]
GPR35 [3]; U2OS-GPR35-bla
  agonist type compared to zaprinast, based on maximal responses in Tango assays: full agonists
GPR35 [3]; [11]
  EC50: 46.2 µM
GPR35 [6]
  EC50: 2.59 µM

## CCCCCCCCOC(=O)c1cc(O)c(O)c(O)c1 [octyl gallate]
GPR35 [1]
  DMR signal in HT-29 cells (in words): active
GPR35 [2]; [7]
  inhibition of the agonist-induced DMR by ML-145 (in words): can be blocked by ML-145
GPR35 [3]; U2OS-GPR35-bla
  β-arrestin translocation (Tango) signal (in words): trigger Tango signal
GPR35 [4]
  block of the agonist-induced Tango signal by ML-145 (in words): can be blocked by ML-15

## O=[N+]([O-])c1ccc(O)c([N+](=O)[O-])c1 [2,4-DNP, 2,4-dinitrophenol]
GPR35 [1]
  Efficacy DMR: 249 ± 17 pm
GPR35 [2]
  inhibition of the agonist-induced DMR by ML-145 (in words): partial inhibition; also recorded: partially inhibited
GPR35 [3]; read-out: Efficacy Tango
  Emax: 28 ± 1%
GPR35 [3]
  EC50: 272 µM
GPR35 [3]; read-out: efficacy (Tango, normalized to maximal response of zaprinast)
  Emax: 28%
